Here are results for ten molecules from ChEMBL document CHEMBL4400557, “The potential of click reactions for the synthesis of bioactive triterpenes” (Bioorg Med Chem Lett, 2019).

Experiment [1] deals with Human immunodeficiency virus 1. Put plainly: Antiviral activity against HIV-1 NL4-3. Type of experiment: functional, organism-based. Conditions: Human immunodeficiency virus 1, NL4-3.
Experiment [2] can be described thus: Antiproliferative activity against human A375-S2 cells after 72 hrs by MTT assay. To be noted: A375-S2, 72 h. Type of experiment: functional, cell-based. Background: Formazan colour is commonly taken as a measure of viable cells.
Experiment [3] relates to HT-1080. Kind of experiment: Antiproliferative activity against human HT1080 cells after 72 hrs by MTT assay. To be noted: HT-1080, 72 h. It is filed as functional, cell-based.
Experiment [4] deals with KB. Put plainly: Antiproliferative activity against human KB cells. It is filed as functional, cell-based.
Experiment [5] is described as follows: Inhibition of glycogen phosphorylase (unknown origin). More on the design: species or system Homo sapiens.
The subject of experiment [6] is MDA-MB-231. Kind of experiment: Antiproliferative activity against human MDA-MB-231 cells by SRB assay. It is filed as functional. On the technique in general: In SRB staining, fixed cells bind dye roughly in proportion to their protein.
Experiment [7] relates to CCRF-CEM. Put plainly: Cytotoxicity in human CCRF-CEM cells incubated for 72 hrs by SRB assay. Type of experiment: functional, cell-based.
The test system of experiment [8] is HL-60. Kind of experiment: Antiproliferative activity against human HL60 cells by MTT assay. It is filed as functional, cell-based.
Experiment [9] is described as follows: Inhibition of rabbit muscle glycogen phosphorylase. More on the design: species or system Oryctolagus cuniculus.
The test system of experiment [10] is AGS. Kind of experiment: Antiproliferative activity against human AGS cells after 3 days by MTT assay. Type of experiment: functional, cell-based. Conditions: 72 h.

Broadly, the IC50 is the concentration that gives 50% inhibition. For `C=C(C)[C@@H]1CC[C@]2(C(=O)O[Si](c3ccccc3)(c3ccccc3)C(C)(C)C)CC[C@]3(C)[C@H](CC[C@@H]4[C@@]5(C)CC[C@H](O)C(C)(C)[C@@H]5CC[C@]43C)[C@@H]12`, in experiment [1], the IC50 was determined as 0.19 µM.

`CC1(C)CC[C@]2(C(=O)OCc3cn(-c4ccc([N+](=O)[O-])cc4)nn3)CC[C@]3(C)C(=CC[C@@H]4[C@@]5(C)CC[C@H](O)C(C)(C)[C@@H]5CC[C@]43C)[C@@H]2C1`: the half-maximal inhibitory concentration (IC50) was found to be 4.97 µM in experiment [2] and 3.51 µM in experiment [3].

Regarding `C=C(C)[C@@H]1CC[C@]2(C(=O)NCc3cn(C4CC(n5cc(C)c(=O)[nH]c5=O)OC4CO)nn3)CC[C@]3(C)[C@H](CC[C@@H]4[C@@]5(C)CC[C@H](OC(=O)CC(=O)OC)C(C)(C)[C@@H]5CC[C@]43C)[C@@H]12` (stereo partly specified), inhibition in experiment [4] was half-maximal at 8.1 µM (IC50).

For `CC1(C)CC[C@]2(C(=O)O)CC[C@]3(C)C(=CC[C@@H]4[C@@]5(C)CC[C@H](OCc6cn(CCCCCCn7cc(CO[C@H]8CC[C@]9(C)[C@H]%10CC=C%11[C@@H]%12CC(C)(C)CC[C@]%12(C(=O)O)CC[C@@]%11(C)[C@]%10(C)CC[C@H]9C8(C)C)nn7)nn6)C(C)(C)[C@@H]5CC[C@]43C)[C@@H]2C1`, in experiment [5], half-maximal inhibition (IC50) required 2.59 µM.

A word on the GI50: it is the concentration at which growth is held to half of that of the control. Low readings indicate greater sensitivity of the cells, high ones lower sensitivity of the cells. With `C[C@H]1[C@H](C)CC[C@]2(C(=O)OCCCn3cc(COC(=O)[C@]45CC[C@@H](C)[C@H](C)[C@H]4C4=CC[C@@H]6[C@@]7(C)CC[C@H](O)C(C)(C)[C@@H]7CC[C@@]6(C)[C@]4(C)CC5)nn3)CC[C@]3(C)C(=CC[C@@H]4[C@@]5(C)CC[C@H](O)C(C)(C)[C@@H]5CC[C@]43C)[C@H]12`, the GI50 in experiment [6] amounted to 1.4 µM.

`C=C(Cn1cc(-c2ccccc2C=O)nn1)[C@@H]1CC[C@]2(C(=O)O)CC[C@]3(C)[C@H](CC[C@@H]4[C@@]5(C)CC[C@H](OC(C)=O)C(C)(C)[C@@H]5CC[C@]43C)[C@@H]12` displayed a half-inhibitory concentration (IC50) in experiment [7] of 3.3 µM.

For the molecule `CO[C@H]1O[C@H](Cn2cc(COC(=O)[C@]34CCC(C)(C)C[C@H]3C3=CC[C@@H]5[C@@]6(C)CC[C@H](O)C(C)(C)[C@@H]6CC[C@@]5(C)[C@]3(C)CC4)nn2)[C@@H](O)[C@H](O)[C@H]1O`, the IC50 in [5] worked out at 1.4 µM.

In experiment [8], `C=C(Cn1cc(-c2ccc(F)cc2)nn1)[C@@H]1CC[C@]2(C(=O)O)CC[C@]3(C)[C@H](CC[C@@H]4[C@@]5(C)CC[C@H](O)C(C)(C)[C@@H]5CC[C@]43C)[C@@H]12` came in with an IC50 of 1.7 µM.

In the case of `CCCCCCCCC(=O)OCc1cn(CC(=O)O[C@H]2CC[C@]3(C)[C@H]4CC=C5[C@@H]6CC(C)(C)CC[C@]6(C(=O)O)CC[C@@]5(C)[C@]4(C)CC[C@H]3C2(C)C)nn1`, in experiment [9], the IC50 was 5.4 µM. That is a single-digit micromolar value.

In [10], `CC1(C)CC[C@]2(C(=O)O)CC[C@]3(C)C(=CC[C@@H]4[C@@]5(C)CC[C@H](OC(=O)CCc6cn(Cc7ccc(Cl)cc7)nn6)C(C)(C)[C@@H]5CC[C@]43C)[C@@H]2C1` showed an IC50 of 8.9 µM. This counts as single-digit micromolar.
